# Patent US20090325933A1, “Pyrimidinone Derivatives and Their Use as a Drug” (Ipsen Pharma S.A.S., priority 2006, published 2009)
# Read-outs that look alike come from different tables or passages of the source.
# Biological target: T1, human CB2 receptors (Homo sapiens, UniProt P34972)
# T1 construct: expressed in transfected cells; membrane preparations
# Assay: Affinity for human CB2 cannabinoid receptors: inhibition of [3H]-CP55940 binding to transfected CHO-K1 cell membranes
# Details: inhibition constant value range, [3H]-CP55940 1 nM, Cheng-Prusoff
# Protocol: The affinity of the compounds of the present invention for the different sub-types of cannabinoid receptors was measured according to procedures analogous to those described hereafter for the human CB2 receptor.
# Study of the Affinity of the Compounds for the Human CB2 Cannabinoid Receptors:
# The affinity of the compounds of the invention for the human CB2 receptors is determined by measuring the inhibition of the binding of [^3H]-CP55940 to transfected CHO-K1 cell membrane preparations.
# The CHO-K1 cells expressing the human CB2 receptors in stable fashion are cultured in an RPMI 1640 medium containing 10% foetal calf serum, 2 mM of glutamine, 100 U/ml of penicillin, 0.1 mg/ml of streptomycin and 0.5 mg/ml of G418. The cells are collected with 0.5 mM of EDTA and centrifuged at 500 g for 5 minutes at 4° C. The pellet is re-suspended in phosphate buffered saline medium (PBS) and centrifuged at 500 g for 5 minutes at 4° C. The pellet is re-suspended in a Tris 50 mM buffer medium at pH 7.4 and centrifuged at 500 g for 5 minutes at 4° C. The cells are lysed by sonication and centrifuged at 39,000 g for 10 minutes at 4° C. The pellet is re-suspended in the Tris 50 mM buffer medium at pH 7.4 and centrifuged at 50,000 g for 10 minutes at 4° C. The membranes obtained in this last pellet are stored at −80° C.
# Measurement of the competitive inhibition of the binding of the [^3H]-CP55940 to the CB2 receptors is carried out in duplicate using 96-well polypropylene plates. The cell membranes (10 μg of proteins/well) are incubated with the [^3H]-CP55940 (1 nM) for 60 minutes at 25° C. in a Tris-HCl 50 mM buffer medium, pH 7.4, comprising 0.1% bovine serum albumin (BSA), 5 mM of MgCl2, and 50 μg/ml of bacitracin.
# The bound [^3H]-CP55940 is separated from the free [^3H]-CP55940 by filtration through GF/C glass fibre filter plates (Unifilter, Packard) pre-impregnated with 0.1% polyethylenimine (P.E.I.), using a Filtermate 196 (Packard). The filters are washed with Tris-HCl 50 mM buffer, pH 7.4 at 0-4° C. and the radioactivity present is determined using a counter (Packard Top Count).
# The specific binding is obtained by subtracting the non-specific binding (determined in the presence of 0.1 μM of WIN55212-2 from the total binding). The data are analyzed by computer-assisted non-linear regression (MDL). For each test, a Cheng-Prusoff correction is made in order to convert the IC50 to the inhibition constant, Ki.
# where [L] is the concentration of the radioligand used in the test and Kd is the radioligand equilibrium dissociation constant.
# T1 sequence (P34972 whole entry): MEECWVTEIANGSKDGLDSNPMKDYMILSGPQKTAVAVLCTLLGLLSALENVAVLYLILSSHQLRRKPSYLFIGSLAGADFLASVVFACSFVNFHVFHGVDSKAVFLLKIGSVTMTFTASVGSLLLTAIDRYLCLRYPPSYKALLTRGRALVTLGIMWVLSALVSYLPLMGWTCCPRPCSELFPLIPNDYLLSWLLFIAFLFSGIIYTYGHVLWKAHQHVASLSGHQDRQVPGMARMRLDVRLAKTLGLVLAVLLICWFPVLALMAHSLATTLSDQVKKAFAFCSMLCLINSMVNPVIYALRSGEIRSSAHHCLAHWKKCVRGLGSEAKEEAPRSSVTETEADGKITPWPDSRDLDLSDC
SMILES,Ki (read-out: Ki < 0.5 μM) [µM],Ki (read-out: Ki < 5 μM) [µM]
O=c1c2sccc2nc(-c2ccc(-c3ccccc3)cc2)n1CCN1CCCCC1 [Example 24],< 0.5,< 5
CC(C)(C)c1ccc(-c2ccc(-c3nc4ccsc4c(=O)n3CCN3CCCCC3)cc2)cc1 [Example 41],–,< 5
O=c1c2sccc2nc(-c2ccc(-c3cccs3)cc2)n1CCN1CCCCC1 [Example 39],< 0.5,< 5
CC1CCCC(C)N1CCn1c(-c2ccc(-c3ccccc3)cc2)nc2ccsc2c1=O (stereo not drawn) [Example 72],–,< 5
COc1cccc(-c2ccc(-c3nc4ccsc4c(=O)n3CCN3CCCCC3)cc2)c1 [Example 89],< 0.5,< 5
O=c1c2sccc2nc(-c2ccc(-c3ccccc3)cc2)n1CCc1cccnc1 [Example 14],–,< 5
O=c1c2sccc2nc(-c2ccc(-c3cc(Cl)cc(Cl)c3)cc2)n1CCN1CCCCC1 [Example 92],< 0.5,< 5
O=c1c2ccsc2nc(-c2ccc(-c3ccccc3)cc2)n1CCC1CCOCC1 [Example 47],–,< 5
O=c1c2sccc2nc(-c2ccc(-c3ccccc3)cc2)n1CCC1CCOCC1 [Example 12],< 0.5,< 5
COc1ccccc1-c1ccc(-c2nc3ccsc3c(=O)n2CCN2CCCCC2)cc1 [Example 76],< 0.5,< 5
Cc1ccccc1-c1ccc(-c2nc3c(C)c(C)sc3c(=O)n2CCN2CCCCC2)cc1 [Example 75],< 0.5,< 5
O=c1c2ccsc2nc(-c2ccc(-c3ccccc3)cc2)n1CCN1CCOCC1 [Example 48],–,< 5
COc1ccccc1CCn1c(-c2ccc(-c3ccccc3)cc2)nc2ccsc2c1=O [Example 1],–,< 5
O=c1c2sccc2nc(-c2ccc(-c3cccs3)cc2)n1CCc1ccccc1 [Example 20],< 0.5,< 5
Cc1ccc(-c2ccc(-c3nc4ccsc4c(=O)n3CCN3CCCCC3)cc2)cc1C [Example 60],< 0.5,< 5
Cc1csc2c(=O)n(CCN3CCCCC3)c(-c3ccc(-c4ccccc4)cc3)nc12 [Example 46],< 0.5,< 5
Cc1cc2nc(-c3ccc(-c4ccccc4Cl)cc3)n(CCN3CCCCC3)c(=O)c2s1 [Example 77],< 0.5,< 5
Cc1cc2nc(-c3ccc(-c4ccccc4F)cc3)n(CCN3CCCCC3)c(=O)c2s1 [Example 78],< 0.5,< 5
Cc1cc2nc(-c3ccc(-c4cccc(Cl)c4)cc3)n(CCN3CCCCC3)c(=O)c2s1 [Example 86],< 0.5,< 5
Cc1cc2nc(-c3ccc(-c4ccccc4)cc3)n(CCN3CCCCC3)c(=O)c2s1 [Example 61],< 0.5,< 5
O=c1c2sccc2nc(-c2ccc(-c3ccc(F)cc3)cc2)n1CCN1CCCCC1 [Example 73],< 0.5,< 5
O=c1c2sccc2nc(-c2ccc(-c3cccs3)cc2)n1CCC1CCOCC1 [Example 19],–,< 5
CC(C)(C)c1cc2nc(-c3ccc(-c4ccccc4)cc3)n(CCN3CCCCC3)c(=O)c2s1 [Example 57],–,< 5
Cc1ccccc1CCn1c(-c2ccc(-c3ccccc3)cc2)nc2ccsc2c1=O [Example 8],–,< 5
Cc1cccc(-c2ccc(-c3nc4cc(C)sc4c(=O)n3CCN3CCCCC3)cc2)c1 [Example 84],< 0.5,< 5
O=c1c2sccc2nc(-c2ccc(-c3ccccc3)c(F)c2)n1CCN1CCCCC1 [Example 67],< 0.5,< 5
O=c1c2ccsc2nc(-c2ccc(-c3ccccc3)cc2)n1CCN1CCCCC1 [Example 49],< 0.5,< 5
O=c1c2sccc2nc(-c2ccc(-c3cccc(Cl)c3)cc2)n1CCN1CCCCC1 [Example 79],< 0.5,< 5

SMILES,Ki (read-out: Ki < 0.5 μM) [µM],Ki (read-out: Ki < 5 μM) [µM]
O=c1c2sccc2nc(-c2ccc(-c3ccccc3)cc2)n1CCN1CCOCC1 [Example 27],< 0.5,< 5
O=c1c2sccc2nc(-c2ccc(-c3ccccc3Cl)cc2)n1CCN1CCCCC1 [Example 64],< 0.5,< 5
CC1CCCN(CCn2c(-c3ccc(-c4ccccc4)cc3)nc3ccsc3c2=O)C1 (stereo not drawn) [Example 42],< 0.5,< 5
O=c1c2sccc2nc(-c2ccc(-c3ccccc3)cc2)n1CCN1CCCC1 [Example 26],< 0.5,< 5
O=c1c2sccc2nc(-c2ccc(C3CCCCC3)cc2)n1CCN1CCCC1 [Example 35],< 0.5,< 5
Cc1ccccc1-c1ccc(-c2nc3ccsc3c(=O)n2CCN2CCCCC2)cc1 [Example 54],< 0.5,< 5
O=c1c2sccc2nc(-c2ccc(-c3ccccc3)cc2)n1CCc1ccc(Cl)c(Cl)c1 [Example 7],< 0.5,< 5
O=c1c2sccc2nc(-c2ccc(-c3ccccc3)cc2)n1CCC1CCCCC1 [Example 11],< 0.5,< 5
O=c1c2sccc2nc(-c2ccc(C3CCCCC3)cc2)n1CCC1CCCCC1 [Example 16],< 0.5,< 5
O=c1c2sccc2nc(-c2ccc(Cc3ccccc3)cc2)n1CCN1CCCCC1 [Example 32],< 0.5,< 5
O=c1c2sccc2nc(-c2ccc(-c3ccccc3)cc2)n1CCC1C[C@H]2CC[C@@H]1C2 (stereo partly drawn) [Example 59],–,< 5
O=c1c2sccc2nc(-c2ccc3[nH]c4ccccc4c3c2)n1CCN1CCCCC1 [Example 52],–,< 5
Cc1cc2nc(-c3ccc(-c4c(Cl)cccc4Cl)cc3)n(CCN3CCCCC3)c(=O)c2s1 [Example 90],< 0.5,< 5
Cc1sc2c(=O)n(CCN3CCCCC3)c(-c3ccc(-c4ccccc4)cc3)nc2c1C [Example 55],< 0.5,< 5
Cc1cc2nc(-c3ccc(-c4cccc(C(F)(F)F)c4)cc3)n(CCN3CCCCC3)c(=O)c2s1 [Example 87],< 0.5,< 5
O=c1c2sc3ccccc3c2nc(-c2ccc(-c3ccccc3)cc2)n1CCN1CCOCC1 [Example 45],–,< 5
O=c1c2sccc2nc(-c2ccc(-c3c(F)cccc3F)cc2)n1CCN1CCCCC1 [Example 82],< 0.5,< 5
Cc1cc2nc(-c3ccc(-c4ccccc4C)cc3)n(CCN3CCCCC3)c(=O)c2s1 [Example 68],< 0.5,< 5
O=c1c2sccc2nc(-c2ccc(-c3ccccc3)cc2)n1CCc1ccc(Cl)cc1Cl [Example 6],< 0.5,< 5
Cc1ccc(CCn2c(-c3ccc(-c4ccccc4)cc3)nc3ccsc3c2=O)cc1C [Example 9],–,< 5
CC1CCN(CCn2c(-c3ccc(-c4ccccc4)cc3)nc3ccsc3c2=O)CC1 [Example 43],< 0.5,< 5
Cc1cc2nc(-c3ccc(-c4c(C)cccc4C)cc3)n(CCN3CCCCC3)c(=O)c2s1 [Example 91],< 0.5,< 5
O=c1c2occc2nc(-c2ccc(-c3ccccc3)cc2)n1CCN1CCCCC1 [Example 51],–,< 5
O=c1c2sccc2nc(-c2ccc(-c3cccc(C(F)(F)F)c3)cc2)n1CCN1CCCCC1 [Example 74],< 0.5,< 5
Cc1cc2nc(-c3ccc(-c4ccccc4C(F)(F)F)cc3)n(CCN3CCCCC3)c(=O)c2s1 [Example 83],< 0.5,< 5
O=c1c2sccc2nc(-c2ccc(-c3cccs3)cc2)n1CCN1CCOCC1 [Example 40],< 0.5,< 5
O=c1c2sccc2nc(-c2ccc3cc4ccccc4cc3c2)n1CCN1CCCCC1 [Example 50],< 0.5,< 5
